Measured values from patent publication US9551722B2, “Amyloid binding agents” (The Regents of the University of California, priority 2009, dated 2017).

Columns and labels:
[1] = target: T1, pre-aggregated Aβ(1-42) peptide (Homo sapiens, UniProt P05067); test: Apparent binding constant (Kd) by double reciprocal fluorescence plot; details: compound 10, 5, 2.5, 1.25 μM; 5.0 μM pre-aggregated Aβ(1-42); PBS pH 7.4
T1 construct: preaggregated Aβ(1-42) peptides
Method: We also measured the apparent binding constants (Kd) of the compounds (in concentrations of 10, 5, 2.5 and 1.25 μM) to 5.0 μM pre-aggregated Aβ(1-42) peptide. The Kd can be measured from the double reciprocal of the fluorescent maximum and the concentration of the compound. See H. LeVine III, Protein Sci. 1993, 2:404-410. […] [22,] See LeVine, Id.; Lockhart, L. Ye, D. B. Judd, A. T. Merritt, P. N. Lowe, J. L. Morgenstern, G. Z. Hong, A. D. Gee, J. Brown, J. Biol. Chem. 2005, 280:7677-7684; M. Biancalana, K. Makabe, A. Koide, S. Koide, J. Mol. Biol. 2008, 383:205-213; M. Biancalana, K. Makabe, A. Koide, S. Koide, J. Mol. Biol. 2009, 385:1052-1063. The Kd corresponds to the −1/(x-intercept) of the linear regression.
Pre-aggregated Aβ(1-42) (5 μM final concentration) was mixed with various concentrations of compounds described herein (10, 5, 2.5, 1.25 μM) in PBS buffer (pH 7.4) and their fluorescence was measured. The negative inverse of the x-intercept of the linear regression, that was drawn between the double reciprocal of the fluorescence intensity maximum and concentration of the compound, represents the compound binding constant (Kd) to Aβ(1-42).
In order to quantify the dissociation constants (Kd's) for the binding of fluorescent compounds with aggregated β-amyloid peptides, we used the method described by LeVine (see H. LeVine III, Protein Sci. 1993, 2, 404-410). This method is similar to the method described by Benesi-Hildebran (see C. Yang, L. Liu, T. W. Mu, Q. X. Guo, Anal. Sci. 2000, 16, 537-539). Here, the fluorescence of the compound was measured with and without the addition of the aggregated peptides in solution. The relative fluorescence enhancement of the compound upon binding to aggregated β-amyloid peptides was determined by taking the difference between F (fluorescence after the addition of aggregated peptides) and F (fluorescence before the addition of aggregated peptides).
In order to estimate the binding constant (Kd) for the compound-Aβ complexes from the fluorescence studies, we made the following assumptions: • 1. All compounds are completely in solution and free of any significant competing binding process such as self-aggregation. • 2. The concentration of unbound compounds can be approximated as close to the total concentration of the compounds. • 3. The binding sites in the aggregated Aβ peptides are not completely occupied at the concentration of Aβ-binding compounds used for the fluorescence studies (i.e., the experiments are carried out under non-saturated binding conditions).
FIG. 2 and FIG. 6 provide double reciprocal plots of the measured fluorescence versus total concentration of compound [GO]. Assuming that [G] can be approximated as close to [GO] (assumption 2), we can obtain estimates for the Kd's of the compound-Aβ complexes from the x-intercept of the linear fits of the data for each compound.

[2] = target: T2, aggregated Aβ(1-42) peptides (Homo sapiens, UniProt P05067); test: Fluorescence spectra before and after mixing with preaggregated Aβ(1-42) (Cmpds 8a-8d, 11, 14, 19); format: binding; details: for Emission max before binding / Excitation max before binding: 4 μM compound in PBS, without Aβ; for Emission max before binding / Excitation max before binding / Emission max after binding / Excitation max after binding: 25° C.; for Fold increase (fluorescence intensity after binding) / Emission max after binding / Excitation max after binding: 4 μM compound, 5 μM aggregated Aβ(1-42); for Emission max after binding / Excitation max after binding: PBS
T2 construct: preaggregated Aβ(1-42) peptides
Excerpt: An initial study to determine whether a compound can associate with aggregated Aβ is to compare its fluorescence spectra before and after mixing with the Aβ aggregates. See E. E. Nesterov, J. Skoch, B. T. Hyman, W. E. Klunk, B. J. Bacskai, T. M. Swager, Angew. Chem. Int. Edit. 2005, 44:5452-5456; Z. P. Zhuang, M. P. Kung, H. F. Kung, J. Med. Chem. 2006, 49:2841-2844; Q. A. Li, J. S. Lee, C. Ha, C. B. Park, G. Yang, W. B. Gan, Y. T. Chang, Angew. Chem. Int. Edit. 2004, 43:6331-6335; H. F. Kung, C. W. Lee, Z. P. Zhuang, M. P. Kung, C. Hou, K. Plossl, J. Am. Chem. Soc. 2001, 123:12740-12741. […] See H. LeVine III, Protein Sci. 1993, 2:404-410. Along these lines we measured the fluorescent properties of each compound at 4 μM concentration before and after mixing with preaggregated Aβ(1-42) peptides (5 μM, aggregated in PBS buffer for 3 days at 25° C.).
Aggregated Aβ peptide was prepared by dissolving Aβ(1-42) in PBS pH 7.4 to a final concentration of 100 μM. This solution was magnetically stirred at 1200 rpm for 3 days at room temperature. The 100 μM Aβ(1-42) stock solution in PBS was aliquoted and frozen at […] for up to 4 weeks without noticeable change in its property. 150 μL of pre-aggregated Aβ(1-42) was added to 2.85 mL of compound to attain a final concentration of 5 μM Aβ(1-42) and 4 μM of compound. The solution was transferred to 3 mL cuvette and the fluorescence measured at 25° C. […] The fluorescence excitation spectra of Cmpds 8a, 8b, 8c, 14 and 19 are depicted in FIG. 4, respectively.

T1 sequence (P05067 672-713 limits assumed): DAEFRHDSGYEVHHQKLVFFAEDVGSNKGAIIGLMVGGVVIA
T2 sequence (P05067 672-713 limits assumed): as above

| SMILES | Kd [1] | Emission max before binding [2] | Excitation max before binding [2] | Fold increase (fluorescence intensity after binding) [2] | Emission max after binding [2] | Excitation max after binding [2] | Red shift of emission upon binding ([2]; binding to preaggregated Aβ) |
| --- | --- | --- | --- | --- | --- | --- | --- |
| CCN(CC)c1ccc(C=C(C#N)C(=O)OCCOCCOCCOC)cc1 (stereo in doubt) [Cmpd 8c, (Z)-2-(2-(2-methoxyethoxyl)ethoxy)ethyl 2-cyano-3-(4-(diethylamino)phenyl)acrylate] | 4.8 µM | 478 nm | 445 nm | 4.2 fold | 470 nm | 442 nm | – |
| COCCOCCOCCOC(=O)/C(C#N)=C/c1ccc2cc(N3CCCCC3)ccc2c1 [Cmpd 11, (E)-2-(2-(2-methoxyethoxyl)ethoxy)ethyl-2-cyano-3-(6-(piperidin-1-yl)naphthalen-2-yl)acrylate] | 2.5 µM | 462 nm | 445 nm | 9.3 fold | 538 nm | 440 nm | 76 nm |
| CN(C)c1ccc(/C=C(\C#N)C(=O)OCC(O)CO)cc1 (stereo not shown) [Cmpd 14, (E)-2,3-dihydroxypropyl 2-cyano-3-(4-(dimethylamino)phenyl) acrylate] | 3.3 µM | 476 nm | 437 nm | 2.2 fold | 467 nm | 434 nm | – |
| COCCOCCOCCOC(=O)/C(C#N)=C/c1ccc(N(C)C)cc1OC [Cmpd 8b, (E)-2-(2-(2-methoxyethoxyl)ethoxy)ethyl 2-cyano-3-(4-(dimethylamino)-2-methoxyphenyl)acrylate] | 5.3 µM | 478 nm | 442 nm | 1.3 fold | 469 nm | 444 nm | – |
| COCCOCCOCCOC(=O)/C(C#N)=C/c1ccc(N(C)C)cc1 [Cmpd 8a, (E)-2-(2-(2-methoxyethoxyl)ethoxy)ethyl 2-cyano-3-(4-(dimethylamino)phenyl)acrylate] | 2.6 µM | 476 nm | 439 nm | 1.8 fold | 470 nm | 435 nm | – |
| CCCCN(CCCC)c1ccc(C=C(C#N)C(=O)OCCOCCOCCOC)cc1 (stereo in doubt) [Cmpd 8d, (Z)-2-(2-(2-methoxyethoxyl)ethoxy)ethyl-2-cyano-3-(4-(dibutylamino)phenyl)acrylate] | 4.4 µM | 466 nm | 432 nm | 9.4 fold | 468 nm | 440 nm | – |
